Measured values from US20240024520A1, “AUTONOMOUS KNOB DOMAIN PEPTIDES” (UCB BIOPHARMA SRL, priority 2020, published 2024).
Where two headings read alike, the source gives them in different places. Bridge positions count the residues as written; N and C are the ends. Peptide text beside a SMILES is read from it.

Target: C5 (Homo sapiens, UniProt P01031)
Assay: Biacore multi-cycle kinetics on human C5
Assay type: binding
Conditions: for mean stoichiometric ratio: measured Rmax divided by theoretical Rmax; for koff: read-out: mean Koff; for kon: read-out: mean Kon
Description: Binding of knob domain peptides to human C5 was measured by SPR, using a multi-cycle kinetics method as follows:
Kinetics were measured using a Biacore 8K (GE Healthcare) with a CM5 chip, which was prepared as follows: EDC/NHS was mixed at 1:1 ratio (flow rate, 10 μL/min; contact time, 30 seconds), human C5 protein at 1 μg/mL in pH 4.5 sodium-acetate buffer, were injected over flow cell one only (flow rate, 10 μL/min; contact time, 60 seconds). Final immobilization levels in the range of 2000-3000 response units (RU) were obtained, to yield theoretical Rmax values of ˜50-60 RU. Serial dilutions of peptide were prepared in HBS-EP buffer and injected (flow rate, 30 μL/min; contact time, 240 seconds; dissociation time, 6000 seconds). After each injection, the surface was regenerated with two sequential injections of 2M MgCl2 (flow rate, […]; contact time, 30 seconds). Binding to the reference surface was subtracted, and the data were fitted to a single site binding model, using Biacore evaluation software.

[1] = multi-cycle kinetics, n = 3 experiments

C5, sequence (P01031 19-1676): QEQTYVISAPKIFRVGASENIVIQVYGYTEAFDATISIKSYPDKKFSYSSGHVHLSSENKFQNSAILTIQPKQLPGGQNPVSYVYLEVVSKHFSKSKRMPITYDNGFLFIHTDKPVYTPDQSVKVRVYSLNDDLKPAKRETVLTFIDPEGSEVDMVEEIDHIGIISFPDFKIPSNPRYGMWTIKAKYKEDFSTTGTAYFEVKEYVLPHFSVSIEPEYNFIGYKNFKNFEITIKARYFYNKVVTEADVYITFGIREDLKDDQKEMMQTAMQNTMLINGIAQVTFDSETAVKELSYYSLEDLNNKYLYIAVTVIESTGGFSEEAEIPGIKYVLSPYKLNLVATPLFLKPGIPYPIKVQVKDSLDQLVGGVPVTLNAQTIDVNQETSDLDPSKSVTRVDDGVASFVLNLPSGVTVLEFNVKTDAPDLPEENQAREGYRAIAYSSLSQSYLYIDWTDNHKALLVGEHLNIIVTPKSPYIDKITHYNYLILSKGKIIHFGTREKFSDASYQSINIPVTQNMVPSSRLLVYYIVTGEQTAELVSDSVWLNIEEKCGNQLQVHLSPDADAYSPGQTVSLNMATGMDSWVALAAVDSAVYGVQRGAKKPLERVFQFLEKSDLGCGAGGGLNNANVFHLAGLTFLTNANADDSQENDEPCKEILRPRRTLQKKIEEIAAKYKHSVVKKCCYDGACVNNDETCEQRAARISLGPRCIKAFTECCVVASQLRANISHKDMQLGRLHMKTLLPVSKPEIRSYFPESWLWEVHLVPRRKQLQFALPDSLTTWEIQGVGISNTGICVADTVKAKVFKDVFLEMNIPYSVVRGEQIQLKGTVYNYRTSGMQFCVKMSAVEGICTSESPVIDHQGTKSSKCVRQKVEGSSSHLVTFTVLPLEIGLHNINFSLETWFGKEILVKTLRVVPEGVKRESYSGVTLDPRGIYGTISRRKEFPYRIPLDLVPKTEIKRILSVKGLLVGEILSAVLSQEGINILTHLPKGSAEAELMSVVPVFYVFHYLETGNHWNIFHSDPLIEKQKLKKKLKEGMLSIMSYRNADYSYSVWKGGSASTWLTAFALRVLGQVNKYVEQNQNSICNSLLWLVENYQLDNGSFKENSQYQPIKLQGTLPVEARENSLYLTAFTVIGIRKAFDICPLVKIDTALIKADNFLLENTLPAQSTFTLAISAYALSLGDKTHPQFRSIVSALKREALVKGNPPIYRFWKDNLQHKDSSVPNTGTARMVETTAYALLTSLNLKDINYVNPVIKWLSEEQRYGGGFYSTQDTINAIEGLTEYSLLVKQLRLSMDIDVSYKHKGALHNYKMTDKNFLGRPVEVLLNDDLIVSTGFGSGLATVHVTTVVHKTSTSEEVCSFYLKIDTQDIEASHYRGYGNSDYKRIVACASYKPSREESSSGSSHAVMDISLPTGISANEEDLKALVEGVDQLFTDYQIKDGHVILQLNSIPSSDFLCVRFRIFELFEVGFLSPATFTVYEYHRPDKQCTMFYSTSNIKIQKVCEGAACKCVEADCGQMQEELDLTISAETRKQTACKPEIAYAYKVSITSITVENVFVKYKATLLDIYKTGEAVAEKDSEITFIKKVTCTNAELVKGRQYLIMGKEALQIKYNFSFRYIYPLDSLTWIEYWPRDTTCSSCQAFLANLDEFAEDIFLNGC

Q: For `CC[C@H](C)[C@@H]1NC(=O)[C@H](C)NC(=O)[C@H](C(C)C)NC(=O)CNC(=O)[C@@H]2CSSC[C@@H](C(=O)NCC(=O)N[C@@H](Cc3c[nH]cn3)C(=O)N[C@@H](C)C(=O)N[C@@H](CC(C)C)C(=O)N[C@@H](CC(N)=O)C(=O)N[C@@H](CO)C(=O)NCC(=O)N3CCC[C@H]3C(=O)N[C@@H](CC(N)=O)C(=O)N[C@H](C(=O)N[C@@H](CO)C(=O)N3CCC[C@H]3C(=O)N[C@@H](Cc3ccc(O)cc3)C(=O)N[C@H](C(=O)N[C@@H](CO)C(=O)N[C@H](C(=O)O)[C@@H](C)O)C(C)C)[C@@H](C)CC)NC(=O)CNC(=O)[C@H](Cc3c[nH]c4ccccc34)NC(=O)[C@H](CCCNC(=N)N)NC(=O)CNC(=O)[C@H](CSSC[C@H](NC(=O)[C@@H](N)[C@@H](C)O)C(=O)N3CCC[C@H]3C(=O)N[C@@H](CCC(=O)O)C(=O)NCC(=O)N[C@@H](Cc3c[nH]c4ccccc34)C(=O)N[C@@H](CO)C(=O)N[C@@H](CCC(=O)O)C(=O)N2)NC(=O)[C@H](CCC(=O)O)NC(=O)[C@H](Cc2ccc(O)cc2)NC(=O)CNC(=O)[C@H](Cc2ccc(O)cc2)NC1=O` [K92chemFE F26A] (H-TCPEGWSECGVAIYGYECGRWGCGHALNSGPNISPYVST-OH; disulfide 2-18, 9-23; N-terminus assumed), which mean stoichiometric ratio (n = 3 experiments) is on record?
A: 0.65

Q: What about the koff of the same molecule?
A: 0.00328 s⁻¹

Q: And the kon?
A: 184000 M⁻¹ s⁻¹

Q: For `CC[C@H](C)[C@@H]1NC(=O)[C@H](C)NC(=O)[C@H](C(C)C)NC(=O)CNC(=O)[C@@H]2CSSC[C@@H](C(=O)NCC(=O)N[C@@H](Cc3c[nH]cn3)C(=O)N[C@@H](Cc3ccccc3)C(=O)N[C@@H](CC(C)C)C(=O)N[C@@H](CC(N)=O)C(=O)N[C@@H](CO)C(=O)NCC(=O)N3CCC[C@H]3C(=O)N[C@@H](CC(N)=O)C(=O)N[C@H](C(=O)N[C@@H](CO)C(=O)N3CCC[C@H]3C(=O)N[C@@H](Cc3ccc(O)cc3)C(=O)N[C@H](C(=O)N[C@@H](CO)C(=O)N[C@H](C(=O)O)[C@@H](C)O)C(C)C)[C@@H](C)CC)NC(=O)CNC(=O)[C@H](Cc3c[nH]c4ccccc34)NC(=O)[C@H](CCCNC(=N)N)NC(=O)CNC(=O)[C@H](CSSC[C@H](NC(=O)[C@@H](N)[C@@H](C)O)C(=O)N3CCC[C@H]3C(=O)N[C@@H](CCC(=O)O)C(=O)NCC(=O)N[C@@H](C)C(=O)N[C@@H](CO)C(=O)N[C@@H](CCC(=O)O)C(=O)N2)NC(=O)[C@H](CCC(=O)O)NC(=O)[C@H](Cc2ccc(O)cc2)NC(=O)CNC(=O)[C@H](Cc2ccc(O)cc2)NC1=O` [K92chemFE W6A] (H-TCPEGASECGVAIYGYECGRWGCGHFLNSGPNISPYVST-OH; disulfide 2-18, 9-23; N-terminus assumed), which mean stoichiometric ratio (n = 3 experiments) is on record?
A: 0.60

Q: And the koff [1]?
A: 0.00157 s⁻¹

Q: And the kon [1]?
A: 7980 M⁻¹ s⁻¹

Q: Which results are given for `CC[C@H](C)[C@@H]1NC(=O)[C@H](C)NC(=O)[C@H](C(C)C)NC(=O)CNC(=O)[C@@H]2CSSC[C@@H](C(=O)NCC(=O)N[C@@H](Cc3c[nH]cn3)C(=O)N[C@@H](Cc3ccccc3)C(=O)N[C@@H](CC(C)C)C(=O)N[C@@H](CC(N)=O)C(=O)N[C@@H](CO)C(=O)NCC(=O)N3CCC[C@H]3C(=O)N[C@@H](CC(N)=O)C(=O)N[C@H](C(=O)N[C@@H](CO)C(=O)N3CCC[C@H]3C(=O)N[C@@H](Cc3ccc(O)cc3)C(=O)N[C@H](C(=O)N[C@@H](CO)C(=O)N[C@H](C(=O)O)[C@@H](C)O)C(C)C)[C@@H](C)CC)NC(=O)CNC(=O)[C@H](C)NC(=O)[C@H](CCCNC(=N)N)NC(=O)CNC(=O)[C@H](CSSC[C@H](NC(=O)[C@@H](N)[C@@H](C)O)C(=O)N3CCC[C@H]3C(=O)N[C@@H](CCC(=O)O)C(=O)NCC(=O)N[C@@H](Cc3c[nH]c4ccccc34)C(=O)N[C@@H](CO)C(=O)N[C@@H](CCC(=O)O)C(=O)N2)NC(=O)[C@H](CCC(=O)O)NC(=O)[C@H](Cc2ccc(O)cc2)NC(=O)CNC(=O)[C@H](Cc2ccc(O)cc2)NC1=O` [K92chemFE W21A] (H-TCPEGWSECGVAIYGYECGRAGCGHFLNSGPNISPYVST-OH; disulfide 2-18, 9-23; N-terminus assumed)?
A: mean stoichiometric ratio (n = 3 experiments): 0.62; koff [1]: 0.00848 s⁻¹; kon [1]: 17400 M⁻¹ s⁻¹

Q: With `CC[C@H](C)[C@@H]1NC(=O)[C@H](C)NC(=O)[C@H](C(C)C)NC(=O)CNC(=O)[C@@H]2CSSC[C@@H](C(=O)NCC(=O)N[C@@H](Cc3c[nH]cn3)C(=O)N[C@@H](Cc3ccccc3)C(=O)N[C@@H](CC(C)C)C(=O)N[C@@H](CC(N)=O)C(=O)N[C@@H](CO)C(=O)NCC(=O)N3CCC[C@H]3C(=O)N[C@@H](CC(N)=O)C(=O)N[C@H](C(=O)N[C@@H](CO)C(=O)N3CCC[C@H]3C(=O)N[C@@H](Cc3ccc(O)cc3)C(=O)N[C@H](C(=O)N[C@@H](CO)C(=O)N[C@H](C(=O)O)[C@@H](C)O)C(C)C)[C@@H](C)CC)NC(=O)CNC(=O)[C@H](Cc3c[nH]cn3)NC(=O)[C@H](CCCNC(=N)N)NC(=O)CNC(=O)[C@H](CSSC[C@H](NC(=O)[C@@H](N)[C@@H](C)O)C(=O)N3CCC[C@H]3C(=O)N[C@@H](CCC(=O)O)C(=O)NCC(=O)N[C@@H](Cc3c[nH]c4ccccc34)C(=O)N[C@@H](CO)C(=O)N[C@@H](CCC(=O)O)C(=O)N2)NC(=O)[C@H](CCC(=O)O)NC(=O)[C@H](Cc2ccc(O)cc2)NC(=O)CNC(=O)[C@H](Cc2ccc(O)cc2)NC1=O` [K92chemFE W21H] (H-TCPEGWSECGVAIYGYECGRHGCGHFLNSGPNISPYVST-OH; disulfide 2-18, 9-23; N-terminus assumed) as the molecule, how does the mean stoichiometric ratio (n = 3 experiments) read?
A: 0.69

Q: What about the koff of the same molecule?
A: 0.000612 s⁻¹

Q: And the kon?
A: 425000 M⁻¹ s⁻¹

Q: For `CC[C@H](C)[C@@H]1NC(=O)[C@H](C)NC(=O)[C@H](C(C)C)NC(=O)CNC(=O)[C@@H]2CSSC[C@@H](C(=O)NCC(=O)N[C@@H](Cc3c[nH]cn3)C(=O)N[C@@H](Cc3ccccc3)C(=O)N[C@@H](CC(C)C)C(=O)N[C@@H](CC(N)=O)C(=O)N[C@@H](CO)C(=O)NCC(=O)N3CCC[C@H]3C(=O)N[C@@H](CC(N)=O)C(=O)N[C@H](C(=O)N[C@@H](CO)C(=O)N3CCC[C@H]3C(=O)N[C@@H](Cc3ccc(O)cc3)C(=O)N[C@H](C(=O)N[C@@H](CO)C(=O)N[C@H](C(=O)O)[C@@H](C)O)C(C)C)[C@@H](C)CC)NC(=O)CNC(=O)[C@H](Cc3c[nH]c4ccccc34)NC(=O)[C@H](CCCNC(=N)N)NC(=O)CNC(=O)[C@H](CSSC[C@H](NC(=O)[C@@H](N)[C@@H](C)O)C(=O)N3CCC[C@H]3C(=O)N[C@@H](CCC(=O)O)C(=O)NCC(=O)N[C@@H](Cc3c[nH]c4ccccc34)C(=O)N[C@@H](CO)C(=O)N[C@@H](CCC(=O)O)C(=O)N2)NC(=O)[C@H](CCC(=O)O)NC(=O)[C@H](Cc2ccc(O)cc2)NC(=O)CNC(=O)[C@H](C)NC1=O` [K92chemFE Y14A] (H-TCPEGWSECGVAIAGYECGRWGCGHFLNSGPNISPYVST-OH; disulfide 2-18, 9-23; N-terminus assumed), which mean stoichiometric ratio (n = 3 experiments) is on record?
A: 0.41

Q: And the koff [1]?
A: 0.0001 s⁻¹

Q: And the kon [1]?
A: 27200 M⁻¹ s⁻¹

Q: Which mean stoichiometric ratio (n = 3 experiments) does the source give for `CC[C@H](C)[C@@H]1NC(=O)[C@H](C)NC(=O)[C@H](C(C)C)NC(=O)CNC(=O)[C@@H]2CSSC[C@@H](C(=O)NCC(=O)N[C@@H](Cc3c[nH]cn3)C(=O)N[C@@H](Cc3ccccc3)C(=O)N[C@@H](CC(C)C)C(=O)N[C@@H](CC(N)=O)C(=O)N[C@@H](CO)C(=O)NCC(=O)N3CCC[C@H]3C(=O)N[C@@H](CC(N)=O)C(=O)N[C@H](C(=O)N[C@@H](CO)C(=O)N3CCC[C@H]3C(=O)N[C@@H](Cc3ccc(O)cc3)C(=O)N[C@H](C(=O)N[C@@H](CO)C(=O)N[C@H](C(=O)O)[C@@H](C)O)C(C)C)[C@@H](C)CC)NC(=O)CNC(=O)[C@H](Cc3c[nH]c4ccccc34)NC(=O)[C@H](CCCNC(=N)N)NC(=O)CNC(=O)[C@H](CSSC[C@H](NC(=O)[C@@H](N)[C@@H](C)O)C(=O)N3CCC[C@H]3C(=O)N[C@@H](CCC(=O)O)C(=O)NCC(=O)N[C@@H](Cc3c[nH]c4ccccc34)C(=O)N[C@@H](CO)C(=O)N[C@@H](CCC(=O)O)C(=O)N2)NC(=O)[C@H](CCC(=O)O)NC(=O)[C@H](C)NC(=O)CNC(=O)[C@H](Cc2ccc(O)cc2)NC1=O` [K92chemFE Y16A] (H-TCPEGWSECGVAIYGAECGRWGCGHFLNSGPNISPYVST-OH; disulfide 2-18, 9-23; N-terminus assumed) here?
A: 0.66

Q: What about the koff [1] of the same molecule?
A: 0.786 s⁻¹

Q: What about the kon [1] of the same molecule?
A: 1.56e+07 M⁻¹ s⁻¹

Q: For “K92 chemFE W21H: W21H mutant of K92chemFE (TCPEGWSECGVAIYGYECGRHGCGHFLNSGPNISPYVST)”, which “binding to human C5” value (chemical knob domains and variants, result in words) is on record?
A: much-lower loss of affinity
